Reference: PubChem BioAssay AID1963836 (Molecular Pharmacology Branch, DTP, NCI, 2024)

System: 857933-349-R-J2-PDC complex spheroid viability
Test: Anticancer human tumor 857933-349-R-J2-PDC patient-derived colon adenocarcinoma cell line growth inhibition [POLQ]
Conditions: for IC50: curve of first compound; for viability, T/C: stronger effect = lower value
Summary of the method: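 Growth inhibition in 3D: complex spheroids (tumor PDC, HUVEC, MSC) treated with POLQ inhibitor combinations; where Cmax unknown, highest tested concentration 10 microM, except SN-38 at 1 microM.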

[1] = second compound 0.0316 µM, first compound 0.0316 µM
[2] = second compound 0.0316 µM, first compound 0.1 µM
[3] = second compound 0.1 µM, first compound 0.0316 µM
[4] = second compound 0.1 µM, first compound 0.1 µM
[5] = second compound 0.316 µM, first compound 0.0316 µM
[6] = second compound 0.316 µM, first compound 0.1 µM
[7] = second compound 1 µM, first compound 0.0316 µM
[8] = second compound 1 µM, first compound 0.1 µM
[9] = second compound 3.16 µM, first compound 0.0316 µM
[10] = second compound 3.16 µM, first compound 0.1 µM
[11] = second compound 10 µM, first compound 0.0316 µM
[12] = second compound 10 µM, first compound 0.1 µM
[13] = second compound 0.0316 µM, first compound 0.000316 µM
[14] = second compound 0.0316 µM, first compound 0.001 µM
[15] = second compound 0.0316 µM, first compound 0.00316 µM
[16] = second compound 0.0316 µM, first compound 0.01 µM
[17] = second compound 0.1 µM, first compound 0.000316 µM
[18] = second compound 0.1 µM, first compound 0.001 µM
[19] = second compound 0.1 µM, first compound 0.00316 µM
[20] = second compound 0.1 µM, first compound 0.01 µM
[21] = second compound 0.316 µM, first compound 0.000316 µM
[22] = second compound 0.316 µM, first compound 0.001 µM
[23] = second compound 0.316 µM, first compound 0.00316 µM
[24] = second compound 0.316 µM, first compound 0.01 µM
[25] = second compound 1 µM, first compound 0.000316 µM
[26] = second compound 1 µM, first compound 0.001 µM
[27] = second compound 1 µM, first compound 0.00316 µM
[28] = second compound 1 µM, first compound 0.01 µM
[29] = second compound 3.16 µM, first compound 0.000316 µM
[30] = second compound 3.16 µM, first compound 0.001 µM
[31] = second compound 3.16 µM, first compound 0.00316 µM
[32] = second compound 3.16 µM, first compound 0.01 µM
[33] = second compound 10 µM, first compound 0.000316 µM
[34] = second compound 10 µM, first compound 0.001 µM
[35] = second compound 10 µM, first compound 0.00316 µM
[36] = second compound 10 µM, first compound 0.01 µM
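Also: spheroids exposed to compounds for seven days before readout.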

In the case of `C=CC(=O)N1CCN(c2nc(=O)n(-c3c(C)ccnc3C(C)C)c3nc(-c4c(O)cccc4F)c(F)cc23)C(C)C1` (stereo unspecified) + Nc1ccc(C#CCN(C(=O)Cc2ncc(C(F)(F)F)cc2C(F)(F)F)c2ccc(F)cc2)nn1, the IC50 (second compound 0.0316 µM) is reported as > 10000 nM, the IC50 (second compound 0.1 µM) is reported as > 10000 nM and the IC50 (second compound 0.316 µM) is reported as > 10000 nM. For the same compound, the IC50 (second compound 1 µM) was > 10000 nM, the IC50 (second compound 3.16 µM) was > 10000 nM and the IC50 (second compound 10 µM) was > 10000 nM. It also gave a viability, T/C [1] of 90.6%, a viability, T/C [2] of 101% and a viability, T/C (second compound 0.0316 µM, first compound 0.316 µM) of 113%. For the same compound, the viability, T/C (second compound 0.0316 µM, first compound 1 µM) was 98.6%, the viability, T/C (second compound 0.0316 µM, first compound 3.16 µM) was 113% and the viability, T/C (second compound 0.0316 µM, first compound 10 µM) was 87.6%. For the same compound, the viability, T/C [3] was 99.3%, the viability, T/C [4] was 90.7% and the viability, T/C (second compound 0.1 µM, first compound 0.316 µM) was 105%. It also gave a viability, T/C (second compound 0.1 µM, first compound 1 µM) of 100%, a viability, T/C (second compound 0.1 µM, first compound 3.16 µM) of 98.9% and a viability, T/C (second compound 0.1 µM, first compound 10 µM) of 95.5%. It also gave a viability, T/C [5] of 107%, a viability, T/C [6] of 98.5% and a viability, T/C (second compound 0.316 µM, first compound 0.316 µM) of 98.3%. The viability, T/C (second compound 0.316 µM, first compound 1 µM) was 112%, the viability, T/C (second compound 0.316 µM, first compound 3.16 µM) was 93.1% and the viability, T/C (second compound 0.316 µM, first compound 10 µM) was 83.5%. For the same compound, the viability, T/C [7] was 111%, the viability, T/C [8] was 107% and the viability, T/C (second compound 1 µM, first compound 0.316 µM) was 97.6%. For the same compound, the viability, T/C (second compound 1 µM, first compound 1 µM) was 100%, the viability, T/C (second compound 1 µM, first compound 3.16 µM) was 110% and the viability, T/C (second compound 1 µM, first compound 10 µM) was 97.2%. For the same compound, the viability, T/C [9] was 103%, the viability, T/C [10] was 88.8% and the viability, T/C (second compound 3.16 µM, first compound 0.316 µM) was 96.4%. The viability, T/C (second compound 3.16 µM, first compound 1 µM) was 101%, the viability, T/C (second compound 3.16 µM, first compound 3.16 µM) was 108% and the viability, T/C (second compound 3.16 µM, first compound 10 µM) was 98.5%. The viability, T/C [11] was 81.2%, the viability, T/C [12] was 101% and the viability, T/C (second compound 10 µM, first compound 0.316 µM) was 98.9%. The viability, T/C (second compound 10 µM, first compound 1 µM) was 92.6%, the viability, T/C (second compound 10 µM, first compound 3.16 µM) was 112% and the viability, T/C (second compound 10 µM, first compound 10 µM) was 95.3%.
`CC[C@@]1(O)C(=O)OCc2c1cc1n(c2=O)Cc2cc3c(CN(C)C)c(O)ccc3nc2-1` + COC1C(OC(N)=O)C(O)C(Oc2ccc3c(O)c(NC(=O)c4ccc(O)c(CC=C(C)C)c4)c(=O)oc3c2C)OC1(C)C was tested, and the IC50 (second compound 0.0316 µM) was > 100 nM, the IC50 (second compound 0.1 µM) was 80.7 nM and the IC50 (second compound 0.316 µM) was > 100 nM. The IC50 (second compound 1 µM) was > 100 nM, the IC50 (second compound 3.16 µM) was > 100 nM and the IC50 (second compound 10 µM) was > 100 nM. The viability, T/C [13] was 117%, the viability, T/C [14] was 107% and the viability, T/C [15] was 97.6%. For the same compound, the viability, T/C [16] was 84.8%, the viability, T/C [1] was 83% and the viability, T/C [2] was 50.7%. It also gave a viability, T/C [17] of 105%, a viability, T/C [18] of 93.3% and a viability, T/C [19] of 88.5%. It also gave a viability, T/C [20] of 80%, a viability, T/C [3] of 71% and a viability, T/C [4] of 44.2%. For the same compound, the viability, T/C [21] was 120%, the viability, T/C [22] was 86% and the viability, T/C [23] was 94.4%. The viability, T/C [24] was 76.1%, the viability, T/C [5] was 88.5% and the viability, T/C [6] was 50.4%. It also gave a viability, T/C [25] of 138%, a viability, T/C [26] of 83.5% and a viability, T/C [27] of 86%. For the same compound, the viability, T/C [28] was 72%, the viability, T/C [7] was 87.1% and the viability, T/C [8] was 49.7%. For the same compound, the viability, T/C [29] was 128%, the viability, T/C [30] was 102% and the viability, T/C [31] was 79.4%. For the same compound, the viability, T/C [32] was 90.7%, the viability, T/C [9] was 65.9% and the viability, T/C [10] was 44.3%. It also gave a viability, T/C [33] of 136%, a viability, T/C [34] of 123% and a viability, T/C [35] of 69.3%. For the same compound, the viability, T/C [36] was 96.3%, the viability, T/C [11] was 81.6% and the viability, T/C [12] was 45.4%.
In the case of `CC[C@@]1(O)C(=O)OCc2c1cc1n(c2=O)Cc2cc3c(CN(C)C)c(O)ccc3nc2-1` + Cc1cccc(N(C)C(=O)C2C(O)CCN2c2nc(C)cc(C(F)(F)F)c2C#N)c1, the IC50 (second compound 0.0316 µM) is reported as 65.2 nM, the IC50 (second compound 0.1 µM) is reported as 99.9 nM and the IC50 (second compound 0.316 µM) is reported as 69.5 nM. It also gave an IC50 (second compound 1 µM) of 72.2 nM, an IC50 (second compound 3.16 µM) of 97.4 nM and an IC50 (second compound 10 µM) of 18.9 nM. It also gave a viability, T/C [13] of 98.7%, a viability, T/C [14] of 102% and a viability, T/C [15] of 92.8%. For the same compound, the viability, T/C [16] was 80.6%, the viability, T/C [1] was 61.8% and the viability, T/C [2] was 43.1%. It also gave a viability, T/C [17] of 106%, a viability, T/C [18] of 94.5% and a viability, T/C [19] of 88.4%. For the same compound, the viability, T/C [20] was 92.3%, the viability, T/C [3] was 73.6% and the viability, T/C [4] was 49.3%. It also gave a viability, T/C [21] of 76.4%, a viability, T/C [22] of 108% and a viability, T/C [23] of 91.4%. For the same compound, the viability, T/C [24] was 78%, the viability, T/C [5] was 76.2% and the viability, T/C [6] was 38.7%. For the same compound, the viability, T/C [25] was 98.8%, the viability, T/C [26] was 75.8% and the viability, T/C [27] was 83.8%. The viability, T/C [28] was 73.4%, the viability, T/C [7] was 76.6% and the viability, T/C [8] was 40.7%. It also gave a viability, T/C [29] of 95.7%, a viability, T/C [30] of 79.3% and a viability, T/C [31] of 77.9%. It also gave a viability, T/C [32] of 74.1%, a viability, T/C [9] of 69.4% and a viability, T/C [10] of 46%. It also gave a viability, T/C [33] of 77.9%, a viability, T/C [34] of 92.3% and a viability, T/C [35] of 85.2%. For the same compound, the viability, T/C [36] was 56.6%, the viability, T/C [11] was 50.6% and the viability, T/C [12] was 37.9%.
